The values below come from US20220225910A1, “Modulating Electron Transfer Kinetics in E-DNA-type Sensors” (The Regents of the University of California, priority 2019, published 2022).

pKd: −log10 of the molar value. Where two headings read alike, the source gives them in different places. {C6SH} = six-carbon thiol for deposition on gold; {MB} = methylene blue redox reporter Bounds are passed on as bounds.

Data set [1] is described as follows: E-AB sensor titration curves in working buffer (square wave voltammetry). It counts as binding. The note with it: simple buffered solution. Here is the method:
Electrode functionalization. […] This was then dissolved in “assembling buffer” (10 mM Na2HPO4 with 1 M NaCl and 1 mM MgCl2 at pH 7.3) at a final concentration of 500 nM. The electrochemically cleaned gold electrodes were then immersed in 200 μL of this solution for 1 hour in the dark. Following this the electrode surface was rinsed with distilled water and incubated overnight at 4° C. in assembling buffer containing 5 mM 6-mercaptohexanol, followed by a further rinse with distilled water before use. […] These were then dissolved in buffer (10 mM Na2HPO4 with 1 M NaCl and 1 mM MgCl2 at pH 7.3) using different ratio of the two DNA probes. The total oligonucleotide concentration was kept constant at 500 nM to maintain a constant DNA probes packing density. The electrochemically cleaned gold electrodes were then immersed in 200 μL of this solution composed of two DNA probes for 1 hour in the dark. Following this step, the electrode surface was rinsed with distilled water and incubated overnight at 4° C. in assembling buffer containing 5 mM 6-mercaptohexanol, followed by a further rinse with distilled water before use. In-vitro measurements. Electrochemical measurements were performed at room temperature using a CH[…] potentiostat with a CHI684 Multiplexer (CH Instruments, Austin, Tex.) and a standard three-electrode cell containing a platinum counter electrode and a Ag/AgCl (3 M KCl) reference electrode. […] Titration curves. […] Using the values estimated from the previous fitting procedure the raw signal current was converted in signal change % (C%) using the following equation: […]

Data set [2] in a line: E-AB sensor binding curves in flowing undiluted whole blood. As for the experimental part: Titration curves. Experimental titration curves were performed in 10 mL of working buffer (137 mM NaCl, KCl 2.7 mM, Na2HPO4 10 mM, KH2PO4 1.8 mM at pH 7.3) using three E-AB sensors modified with the oligonucleotide probe and using a SWV frequency of 10 and 120 Hz.
The binding curves performed in whole blood were conducted following the previous described experimental approach but using a closed-loop system with a continuous flow of whole blood (total volume of 20 mL at 1 mL/s) through a circulator pump.

The nature of data set [3]: Square wave voltammetry frequency vs signal change (%). The note with it: aptamer alone on sensor. Format: binding. From the text: Square wave voltammetry frequency vs signal change (%) plot. […] Then the estimated signal change (%) was plotted in function of the relative square wave frequency.
The nature of data set [4]: In vivo pharmacokinetic measurement with indwelling E-AB sensor in jugular vein. The note with it: rat; for distribution rate (a): intravenous. Here is the method: In-vivo measurements. All in vivo measurements were performed using a three-electrode setup in which the counter electrodes were made of platinum wire and the reference electrodes were a silver wire coated with a silver chloride film as described above. The measurements carried out in vivo were recorded using a handheld potentiostat from CH Instruments (Model 1242 B). Square Wave Voltammetry (SWV) was performed using a potential window of −0.1 to −0.45 V, a potential step of 0.001 V and 0.05 V amplitude
For in vivo measurements a 30 min sensor baseline was established before the drug infusion. A 3 mL syringe filled with the target drug was connected to the sensor-free catheter (placed in the jugular opposite that in which the sensor is emplaced) and placed in a motorized syringe pump. […] After drug infusion, recordings were taken for up to 1 hour before the next infusion. The real-time plotting and analysis of voltammetric data were carried out with the help of a script written in Python.
Animals. In vivo measurements were performed in male and female Sprague-Dawley rats (4-5 months old) weighing between 300 and 500 g. All animals were pair housed in a standard light cycle room (08:00 on, 20:00 off) and allowed ad libitum access to food and water. For in vivo measurements rats were induced under 5% isoflurane anesthesia in a Plexiglas anesthesia chamber. The rats were then maintained on 2-3% isoflurane gas for the duration of the experiment. A small incision was made above each vein, then each vein was isolated. A small hole was cut into each vein with spring-loaded microscissors. The silastic catheter inserted into the left jugular vein was constructed with a bent steel cannula with a screw-type connector and silastic tubing (11 cm, i.d. 0.64 mm, o.d. 1.19 mm). […]
where A and B are amplitudes, and […] for distribution and elimination, respectively. […] The area under the curve (AUC) was calculated using the parameters A, B, α and β, because integrating the equation 5 from 0 to infinity, it holds: […]
The clearance (ClT) was calculated by the equation: […]

The subject of the next data set is E-AB sensor. Briefly: In vivo control injections, sensor specificity. Set-up: species or system Sprague-Dawley rats. The note with it: camptothecin E-AB sensor in live rat, KDM. From the text:
FIGS. 6A, 6B, and 6C. FIG. 6A depicts signals collected at high (120 Hz) and low (10 Hz) frequencies by a sensor of the invention. […] FIG. 6B: taking the difference (KDM) between the normalized high (120 Hz) and low (10 Hz) frequency signals produces a stable baseline.

For data set [5] the following is noted: unstructured 10-base strand; cited from earlier work.
Data set [6] is described as follows: Solution binding of the unmodified aptamer, using the intrinsic fluorescence of irinotecan. The note with it: unmodified aptamer free in solution, read-out: dissociation constant.
The nature of data set [7]: Sensor equilibration time. Format: binding. The note with it: in buffer, clinically relevant concentrations, 500 Hz. As for the experimental part:
Sensor equilibration time. The sensor's equilibration time was determined using the above experimental approach and interrogating the sensor every 5 s in working buffer and using a SWV frequency of 500 Hz. […] The observed signal change was fitted to a single exponential decay to obtain the equilibration time constant of the sensor.

Consider “CA28: truncated camptothecin aptamer: 5′-CGGACTTGGGTGGGTGGGTTGGGGTACG-3′ (DNA CGGACTTGGGTGGGTGGGTTGGGGTACG; listed as DNA, chemistry not fully specified)”, for which the “signal gain relative to other variants” value in data set [1] is listed as “greatest signal gain”. In data set [2], the “E-AB sensing performance in whole blood” value is “supported high-gain E-AB sensing”. The “dependence of gain on square-wave frequency” value (from here on “dependence of gain”) in data set [3] was “only a weak function of square-wave frequency”.

Regarding “CA32: truncated camptothecin aptamer: 5′-TCCGGACTTGGGTGGGTGGGTTGGGGTACGGT-3′ (DNA TCCGGACTTGGGTGGGTGGGTTGGGGTACGGT; listed as DNA, chemistry not fully specified)”, the “signal gain relative to other variants” value in data set [1] is on record as “greatest signal gain”. Further, the “E-AB sensing performance in whole blood” value in data set [2] is recorded as “supported high-gain E-AB sensing”. Also, in data set [3], the “dependence of gain” value is listed as “only a weak function of square-wave frequency”.

Regarding `CCc1c2c(nc3ccc(OC(=O)N4CCC(N5CCCCC5)CC4)cc13)-c1cc3c(c(=O)n1C2)COC(=O)[C@]3(O)CC` [irinotecan], the “variation in CMAX or the rate of the distribution phase between rats” value in data set [4] (both, Sprague-Dawley, in vivo, 20 mg/kg) is given as 10-20%. For the same molecule, the “distribution rate (a)” value in data set [4] (10 mg kg (first value)) came out at 0.58 ± 0.07 min; in data set [4] (20 mg kg (second value)), 0.48 min.

For “CA16: camptothecin aptamer, only the G-quadruplex binding pocket: 5′-GGGTGGGTGGGTTGGG-3′ (chemistry not given here)”, in data set [1], the “signal gain relative to other variants” value is “greatest signal gain”. The “E-AB sensing performance in whole blood” value in data set [2] was “supported high-gain E-AB sensing”. Besides, the “dependence of gain” value in data set [3] is on record as “only a weak function of square-wave frequency”.

As to `O=c1[nH]cc(F)c(=O)[nH]1` [5-fluorouracil], the “sensor response to control injection” value in the data set with E-AB sensor is reported as “do not produce any measurable sensor response”.

In the case of “SEQ ID NO: 8: secondary moiety: unstructured 10-base strand, random sequence of adenines and thymines, reporter-modified (DNA ATTATTTTTT; reporter-modified, reporter and position not given here)”, the “rate of electron transfer” value in data set [5] is 80 per second.

For “CA40_2MM: camptothecin aptamer, two mismatches: 5′-ACGCTCTGGACTTGGGTGGGTGGGTTGGGGTACGGTGTGT-3′ (DNA ACGCTCTGGACTTGGGTGGGTGGGTTGGGGTACGGTGTGT; listed as DNA, chemistry not fully specified)”, the “signal gain relative to other variants” value in data set [1] was “greatest signal gain”.

Turning to “CA40: 40-base truncation of the known camptothecin-binding DNA aptamer; G-quadruplex flanked by a 12-base-pair stem (DNA ACGCTCCGGACTTGGGTGGGTGGGTTGGGGTACGGTGCGT; DNA, 5' {C6SH}, 3' {MB}, backbone not given here; further chemistry not fully specified)”, the pKd was 6.32 in data set [6] (listed as parent aptamer) and about 6.32 in data set [6]. In data set [2], the gain result is reported as “about 15%”. For the same molecule, in data set [7], the “association and dissociation kinetics, time constants” value is listed as under 5 s.
